What was measured:
patients with MDD or PPD = settings: cited from earlier work
adults with MDD [1] = assay: Phase 3 CORAL study: treatment-emergent adverse events (safety set); type: in vivo, human; settings: 50 mg once daily 14 days co-initiated with ADT
Procedure: This was a randomized, double-blind, parallel-group, placebo-controlled study in adults with MDD. The diagnosis of MDD was made according to Structured Clinical Interview for Diagnostic and Statistical Manual of Mental Disorders, Fifth Edition (DSM-5) Clinical Trial Version (SCID 5-CT) performed by a qualified healthcare professional.
Participants were randomized to receive blinded Compound (1) 50 mg or placebo for administration each evening from Days 1 through 14. In addition, all participants received 1 of 2 classes of ADTs: a selective serotonin reuptake inhibitor (SSRI; sertraline, escitalopram, citalopram) or a serotonin-norepinephrine reuptake inhibitor (SNRI; duloxetine or desvenlafaxine) in an open-label manner from Day 1 through the end of the study. The ADT was administered per labeled prescribing information. The investigator assigned 1 of the 5 ADTs based on clinical standard of care; the participant must not have had been previously treated with the assigned ADT within the current depressive episode and must not have had taken any ADT within 30 days prior to Day 1 (or taken fluoxetine within 60 days prior to Day 1). Randomization was stratified by ADT class (SSRI or SNRI). […]

adults with MDD [2] = settings: responders to first 14-day course of 50 mg who continued beyond Day 28; up to 1 year follow-up; cited from earlier work
[3] = test system: patients with major depressive disorder (MDD); settings: TEAEs: nausea/vomiting, diarrhoea, abdominal pain, dyspepsia, anorexia, dry mouth; cited from earlier work

| SMILES | onset of effect on depressive symptoms (patients with MDD or PPD; 50 mg vs placebo, patients with MDD or PPD) | minimally effective dose (patients with MDD or PPD; previous Compound (1) studies in MDD) | tolerability (in words) (adults with MDD [1]) | patients who received a total of 1 or 2 treatment courses (adults with MDD [2]) | tolerability on the gastrointestinal tract among antidepressants (in words) [3] |
| --- | --- | --- | --- | --- | --- |
| C[C@@]1(O)CC[C@H]2[C@H](CC[C@@H]3[C@@H]2CC[C@]2(C)[C@@H](C(=O)Cn4cc(C#N)cn4)CC[C@@H]32)C1 [Compound (1), 1-(2-((3R,5R,8R,9R,10S,13S,14S,17S)-3-hydroxy-3,13-dimethylhexadecahydro-1H-cyclopenta[a]phenanthren-17-yl)-2-oxoethyl)-1H-pyrazole-4-carbonitrile] | Day 2 or 3 | 30 mg | generally-well tolerated | approximately 80% |  |
| CN[C@H]1CC[C@@H](c2ccc(Cl)c(Cl)c2)c2ccccc21 [sertraline] |  |  |  |  | least tolerated |
| CN(C)CCC[C@@]1(c2ccc(F)cc2)OCc2cc(C#N)ccc21 [escitalopram] |  |  |  |  | least tolerated |

Source: patent US20250295674A1, “NEUROACTIVE STEROIDS FOR TREATMENT OF CNS-RELATED DISORDERS” (Sage Therapeutics, Inc., priority 2022, published 2025)
